Columns and labels:
FLT3 = molecular target: T1, FLT3 (Homo sapiens, UniProt P36888); assay: Binding constant (Kd) measurement, phage-displayed kinase competition binding assay; settings: for Binding Assay: FLT3(DKIN): FLT3(DKIN) construct; for Binding Assay: FLT3(JMminus): FLT3(JMminus) construct
T1 construct: FLT3(DKIN); made in house
T1 sequence (P36888 610-943 limits assumed): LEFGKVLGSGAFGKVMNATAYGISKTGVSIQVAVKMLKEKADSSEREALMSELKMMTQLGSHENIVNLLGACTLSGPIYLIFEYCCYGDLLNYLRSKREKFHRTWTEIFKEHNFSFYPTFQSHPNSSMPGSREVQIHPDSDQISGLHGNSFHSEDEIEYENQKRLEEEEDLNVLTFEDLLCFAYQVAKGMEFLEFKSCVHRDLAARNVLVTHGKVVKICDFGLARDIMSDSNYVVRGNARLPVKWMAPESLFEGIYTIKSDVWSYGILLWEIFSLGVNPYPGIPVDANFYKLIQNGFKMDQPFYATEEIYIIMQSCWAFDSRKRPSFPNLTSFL
Text: Binding Constant (Kd) Measurements for Small-Molecule-Kinase Interactions
The term “ND” represents non-determined values.

MV4,11 cells = assay: FLT3 assay using MV4,11 cells (cellular proliferation, MTS); type: cell-based, human; settings: cell assay code CS0001
In short: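 MV4,11 AML cells, […] switch to DMEM/10% FBS overnight, plated at 10,000 cells/well and exposed to serially diluted compounds in duplicate for 3 days at 37° C., 5% CO2. Proliferation read by MTS added for 2 h.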

CS0005 = assay: Cell Assay: CS0005; type: cell-based; settings: cell assay code CS0005
CS0002 = assay: Cell Assay: CS0002; type: cell-based; settings: cell assay code CS0002

Binding Assay: FLT3(DKIN) (FLT3) | Cell Assay: CS0001:IC50 (MV4,11 cells) | Cell Assay: CS0005:IC50 (CS0005) | Cell Assay: CS0002:IC50 (CS0002) | IC50 (CS0002) [µM] | Binding Assay: FLT3(JMminus) (FLT3) | Compound
+ + + + | + + + + | + + + + | + + | – | – | Cn1cc(C(=O)Nc2ccc(NC(=O)Nc3cc(C(C)(C)C)on3)cc2)c2ccccc21 [Compound N119]
+ + + + | + + + + | + + + | – | – | – | CC(C)(C)c1cc(NC(=O)Nc2ccc(OCc3cccc(F)c3)cc2)no1 [Compound G14]
+ + + + | + + + + | + + + + | – | > 10 | – | CC(C)(C)c1cc(NC(=O)Nc2ccc(NC(=O)c3cscn3)cc2)no1 [Compound N57]
+ + + + | + + + + | + + + + | + + | – | – | Cc1ccc2sc(C(=O)Nc3ccc(NC(=O)Nc4cc(C(C)(C)C)on4)cc3)cc2c1 [Compound N133]
+ + + + | + + + + | + + + | – | > 10 | – | CC(C)(C)c1cc(NC(=O)Nc2ccc(OCc3ccc(F)cc3)cc2)no1 [Compound G35]
+ + + + | + + + + | + + + + | – | > 10 | – | Cc1cnc(C(=O)Nc2ccc(NC(=O)Nc3cc(C(C)(C)C)on3)cc2)cn1 [Compound O2]
+ + | + + | + + + | – | – | – | CC(C)(C)c1cc(NC(=O)Nc2ccc(NC(=O)c3ccc(Cl)cc3)cc2)no1 [Compound N26]
+ + + + | + + + + | + + + | + + | – | – | CC(C)(C)c1cc(NC(=O)Nc2ccc(OCC3CC3)cc2)no1 [Compound G37]
– | + + + + | + + + + | + + | – | + + + + | COc1cc(C(=O)Nc2ccc(NC(=O)Nc3cc(C(C)(C)C)on3)cc2)nc(OC)n1 [Compound N162]
+ + + + | + + + + | + + + + | + + | – | – | CC(C)(C)c1cc(NC(=O)Nc2ccc(OC/C=C/c3ccccc3Cl)cc2)no1 [Compound G26]
+ + + + | + + + + | + + + + | – | > 10 | – | CC(C)(C)c1cc(NC(=O)Nc2ccc(OCCc3ccncc3)cc2)no1 [Compound G22]
+ + + + | + + + + | + + + | – | > 10 | – | CC(C)(C)c1cc(NC(=O)Nc2ccc(NC(=O)c3csc(-c4ccncc4)n3)cc2)no1 [Compound N16]
+ + + + | + + + + | + + + + | + + | – | – | COc1cc2ncnc(Nc3ccc(NC(=O)Nc4cc(C(C)(C)C)on4)cc3)c2cc1OC [Compound O5]
+ + + + | + + + + | + + + + | + + | – | – | CC(C)(C)c1cc(NC(=O)Nc2ccc(NC(=O)c3cccc(Cl)n3)cc2)no1 [Compound N4]
+ + + + | + + + + | + + + + | + + + | – | – | CC(C)(C)c1cc(NC(=O)Nc2ccc(NC(=O)c3cc(N4CCOCC4)nc(N4CCOCC4)n3)cc2)no1 [Compound N54]
+ + + + | + + + + | + + + + | – | – | – | CC(C)(C)c1cc(NC(=O)Nc2ccc(NC(=O)c3ccc4ccccc4c3)cc2)no1 [Compound N28]

Binding Assay: FLT3(DKIN) (FLT3) | Cell Assay: CS0001:IC50 (MV4,11 cells) | Cell Assay: CS0005:IC50 (CS0005) | Cell Assay: CS0002:IC50 (CS0002) | IC50 (CS0002) [µM] | Binding Assay: FLT3(JMminus) (FLT3) | Compound
– | + + + + | + + + + | + + | – | + + + + | C=N/C(=N\C)Oc1cccc(C(=O)Nc2ccc(NC(=O)Nc3cc(C(C)(C)C)on3)cc2)c1 [Compound N74]
– | + + + + | + + + + | – | > 10 | + + + + | Cc1cnc(C(=O)Nc2ccc(NC(=O)Nc3cc(C(C)(C)C)on3)cc2)c(C(=O)O)n1 [Compound N160]
+ + + + | + + + | + + + | – | – | – | Cn1nc(C(C)(C)C)cc1C(=O)Nc1ccc(NC(=O)Nc2cc(C(C)(C)C)on2)cc1 [Compound N10]
+ + + + | + + + + | + + + + | – | – | – | CC(C)(C)c1cc(NC(=O)Nc2ccc(OCc3ccc(-c4ccccc4)cc3)cc2)no1 [Compound G56]
+ + + + | + + + + | + + + + | – | – | – | CC(C)(C)c1cc(NC(=O)Nc2ccc(NC(=O)c3ccccc3)cc2)no1 [Compound N34]
+ + + + | + + + + | – | + + | – | – | CC(C)(C)c1cc(NC(=O)Nc2ccc(NC(=O)c3cc4cc(Br)ccc4s3)cc2)no1 [Compound N17]
– | + + + | – | + + | – | + + + + | COC(=O)c1cccc(Sc2ncc(NC(=O)Nc3cc(C(C)(C)C)on3)s2)c1 [Compound O8]
+ + + + | + + + + | – | + + | – | – | Cc1nc(-c2cccnc2)sc1C(=O)Nc1ccc(NC(=O)Nc2cc(C(C)C)on2)cc1 [Compound N48]
+ + + + | + + + | – | – | > 10 | – | CCc1ccc(C(=O)Nc2ccc(NC(=O)Nc3cc(C(C)(C)C)on3)cc2)cc1 [Compound N32]
+ + + + | + + + | – | – | > 10 | – | Cn1nc(C(F)(F)F)c2cc(C(=O)Nc3ccc(NC(=O)Nc4cc(C(C)(C)C)on4)cc3)sc21 [Compound N64]
– | + + + | – | + + | – | + + + + | Cc1ccc(-c2nc(C(=O)Nc3ccc(NC(=O)Nc4cc(C(C)(C)C)on4)cc3)cs2)cc1 [Compound N178]
+ + + + | + + + + | + + + | – | – | – | CC(C)(C)c1cc(NC(=O)Nc2ccc(OCc3cccc(Cl)c3)cc2)no1 [Compound G11]
+ + + + | + + + + | + + + | – | – | – | CC(C)(C)c1cc(NC(=O)Nc2ccc(OCc3ccccc3)cc2)no1 [Compound G31]
– | + + + + | – | – | > 10 | + + + + | CC(C)(C)c1cc(NC(=O)Nc2ccc(Nc3cc(N)nc(N)n3)cc2)no1 [Compound O7]
+ + + + | + + + | – | + + + | – | – | COc1cc(OC)nc(Sc2ccccc2C(=O)Nc2ccc(NC(=O)Nc3cc(C(C)(C)C)on3)cc2)n1 [Compound N47]

Compound | Binding Assay: FLT3(DKIN) (FLT3) | Cell Assay: CS0001:IC50 (MV4,11 cells) | Cell Assay: CS0005:IC50 (CS0005) | Cell Assay: CS0002:IC50 (CS0002) | IC50 (CS0002) [µM] | Binding Assay: FLT3(JMminus) (FLT3)
CC(C)(C)c1cc(NC(=O)Nc2ccc(NC(=O)c3cc4ccccc4cn3)cc2)no1 [Compound N106] | – | – | + + + + | – | > 10 | –

Reference: US20050267182A1, “Urea derivatives as FLT-3 modulators” (Ambit Biosciences Corporation, priority 2003, published 2005)
